{
  "source": "patent US4960596A",
  "about": "(Ethypharm, priority 1987, dated 1990)",
  "origin": "cited, not measured here",
  "key": {"sodium-potassium pump": {"tested_on": "sodium-potassium pump", "conditions": "smooth muscle cells and other types of cell"}, "[1]": {"tested_on": "special channels to be found in the membranes of a variety of cells (calcium)"}, "[2]": {"conditions": "literature"}},
  "note": "Where a name gives a salt, the structure may show the parent alone.",
  "data": [
    {"smiles": "COc1ccc(C2Sc3ccccc3N(CCN(C)C)C(=O)C2OC(C)=O)cc1", "note": "(stereo not drawn) [Diltiazem, Diltiazem hydrochloride]", "values": [
      {"measurement": "heart pacemaker activity and auriculo-ventricular node conduction", "setting": "heart muscle", "result": "depressive effective on heart pacemaker activity and on auriculo-ventricular node conduction resulting in a negative chronotropic effect"},
      {"measurement": "inotropic effect", "setting": "heart muscle", "result": "weak negative inotropic effect on the heart muscle"},
      {"measurement": "intra-cellular sodium", "setting": "sodium-potassium pump", "result": "reduces intra-cellular sodium by stimulating the sodium-potassium pump"},
      {"measurement": "calcium inflow", "setting": "[1]", "result": "inhibit the inflow of calcium"},
      {"measurement": "half life", "setting": "[2]", "result": "four hours to seven hours"},
      {"measurement": "effect on smooth muscle", "setting": "smooth muscle", "result": "vasodilatation of smooth muscle"}
    ]}
  ]
}
